# Data: US20210369661A1, “METHODS AND COMPOSITIONS FOR TREATING AND RECOVERING FROM VIRAL INFECTIONS” (IMMUNOFLEX THERAPEUTICS INC., priority 2020, published 2021)
# Values joined by “and” are separate entries in the source; they are usually repeats but may differ in a detail not shown here. Identical values can stand only once. “Also recorded” adds a separate entry of the source.
# Key:
# [1] = biological target: T1, fatty acid amide hydrolase (FAAH) (Rattus norvegicus, UniProt P97612); conditions: rat brain homogenates; read-out: IC50, inhibition of anandamide hydrolysis; cited from earlier work
# T1 construct: from tissue; host or cells: rat brain homogenates
# T1 sequence (P97612 1-579): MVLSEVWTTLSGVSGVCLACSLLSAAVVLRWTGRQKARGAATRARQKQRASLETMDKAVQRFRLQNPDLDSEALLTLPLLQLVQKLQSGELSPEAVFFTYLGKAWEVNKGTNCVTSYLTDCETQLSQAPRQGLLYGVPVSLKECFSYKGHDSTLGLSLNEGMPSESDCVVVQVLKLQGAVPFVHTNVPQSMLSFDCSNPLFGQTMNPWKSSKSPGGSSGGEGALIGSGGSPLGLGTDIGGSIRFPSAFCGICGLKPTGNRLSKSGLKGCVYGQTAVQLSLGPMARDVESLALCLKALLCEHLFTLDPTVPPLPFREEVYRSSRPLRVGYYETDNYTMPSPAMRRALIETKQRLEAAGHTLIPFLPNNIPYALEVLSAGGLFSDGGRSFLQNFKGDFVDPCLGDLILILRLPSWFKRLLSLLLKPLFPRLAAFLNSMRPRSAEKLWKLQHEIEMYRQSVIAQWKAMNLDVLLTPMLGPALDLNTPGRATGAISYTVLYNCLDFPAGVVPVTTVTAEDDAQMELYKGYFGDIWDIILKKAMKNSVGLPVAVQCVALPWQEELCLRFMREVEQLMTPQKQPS
# HCV infected cells = conditions: in vitro; cited from earlier work
# [2] = cited from earlier work
# GPR55 = GPR55 (Homo sapiens, UniProt Q9Y2T6); conditions: cited from earlier work
# GPR55, sequence (Q9Y2T6 whole entry, species assumed): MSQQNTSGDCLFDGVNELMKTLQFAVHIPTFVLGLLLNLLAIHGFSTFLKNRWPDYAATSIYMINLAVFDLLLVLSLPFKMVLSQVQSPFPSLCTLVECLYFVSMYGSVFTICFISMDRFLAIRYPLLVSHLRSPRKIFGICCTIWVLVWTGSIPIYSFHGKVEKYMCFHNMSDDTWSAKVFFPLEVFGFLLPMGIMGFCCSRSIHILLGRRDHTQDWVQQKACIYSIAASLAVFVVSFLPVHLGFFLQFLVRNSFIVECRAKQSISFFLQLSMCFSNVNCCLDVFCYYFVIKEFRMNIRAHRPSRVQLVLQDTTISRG
# CB1 and CB2 = conditions: cited from earlier work; for Agonism or antagonism against CB1 and CB2: up to 20 μM
# HIV [3] = conditions: 293.27.2, H9, MOLT-4 cells, PBMCs; with or without TNFα / PMA stimulation; cited from earlier work
# human PBMCs = conditions: NAC 1 mM, in vitro; cited from earlier work
# [4] = tested on: A/swine/HeBei/012/2008 (H9N2) viruses; conditions: intra-nasal inoculation with or without NAC; cited from earlier work
# [5] = tested on: TCR β chain immune repertoire; experiment: T cell receptor β chain immune repertoire diversity index after a controlled dose (iRepertoire sequencing of blood); type: in vivo, human; conditions: for Total number of clonotypes: within 24-48 hr of applied dose
# HIV [6] = conditions: cited from earlier work
# [7] = tested on: A/H1N1 Singapore 6/86 influenza virus; conditions: cited from earlier work
# [8] = tested on: influenza A (H5N1) viruses; conditions: lung epithelial cells; cited from earlier work
# [9] = Intoxication after topical application of THC salve; conditions: 10 mg THC, application for three days
# [10] = biological target: monoacylglycerol lipase (MAGL); conditions: reversible mechanism; read-out: IC50, inhibition of MAGL; cited from earlier work
# CB1 receptor = CB1 receptor (Homo sapiens, UniProt P21554); conditions: read-out: I value at the CB1 receptor; cited from earlier work
# CB1 receptor, sequence (P21554 whole entry): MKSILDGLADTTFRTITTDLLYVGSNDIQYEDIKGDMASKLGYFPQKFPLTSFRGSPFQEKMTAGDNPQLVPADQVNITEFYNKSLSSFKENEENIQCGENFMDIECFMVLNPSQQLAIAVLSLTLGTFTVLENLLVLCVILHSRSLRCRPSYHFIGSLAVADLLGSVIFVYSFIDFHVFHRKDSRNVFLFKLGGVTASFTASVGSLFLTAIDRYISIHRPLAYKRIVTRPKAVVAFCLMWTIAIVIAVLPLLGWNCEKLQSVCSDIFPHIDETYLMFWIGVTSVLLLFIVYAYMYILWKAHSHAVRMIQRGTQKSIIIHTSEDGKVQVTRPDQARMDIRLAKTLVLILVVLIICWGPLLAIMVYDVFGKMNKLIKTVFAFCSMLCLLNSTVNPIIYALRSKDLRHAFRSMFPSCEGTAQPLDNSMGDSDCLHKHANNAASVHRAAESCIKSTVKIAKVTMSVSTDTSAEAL
# [11] = tested on: influenza virus strain A/PR8(H1N1); conditions: lethal influenza infection in mice; cited from earlier work
# influenza virus = conditions: combination with ribavirin vs ribavirin alone; cited from earlier work
# CB2 receptor = CB2 receptor (Homo sapiens, UniProt P34972); conditions: nM concentrations; cited from earlier work
# CB2 receptor, sequence (P34972 whole entry): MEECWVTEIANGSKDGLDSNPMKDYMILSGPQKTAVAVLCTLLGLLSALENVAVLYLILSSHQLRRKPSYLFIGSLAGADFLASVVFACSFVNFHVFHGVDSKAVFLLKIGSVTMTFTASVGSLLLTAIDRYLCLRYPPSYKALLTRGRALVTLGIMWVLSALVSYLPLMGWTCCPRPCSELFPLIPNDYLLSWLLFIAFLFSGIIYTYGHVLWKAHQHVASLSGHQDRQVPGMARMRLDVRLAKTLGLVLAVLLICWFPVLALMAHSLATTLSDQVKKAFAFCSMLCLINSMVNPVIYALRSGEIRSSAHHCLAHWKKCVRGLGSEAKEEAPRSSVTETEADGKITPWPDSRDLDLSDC
structure (smiles),measurement,setting,value
O=c1cc(-c2ccccc2)oc2cc(O)ccc12 [7-hydroxyflavone],IC50,[1],< 1000 nM
"C=C(C)[C@@H]1CCC(C)=C[C@H]1c1c(O)cc(CCCCC)cc1O [CBD, cannabidiol]",Cell death of HCV infected cells,HCV infected cells,approximately 85%
CCCCCc1cc(O)c2c(c1)OC(C)(C)[C@@H]1CCC(C)=C[C@@H]21 [Dronabinol],Amount reaching the blood stream by absorption through the digestive system,[2]; oral,10-20 % of the administered dose
same,Duration of peak therapeutic effect,[2]; post administration,2 to 4 h
Cc1cccc(N2CCN(C(=O)c3cc(S(=O)(=O)N(C)C)ccc3N3CCCC3)CC2)c1C [ML184],Potency for GPR55,GPR55,263 nM
same,Selectivity against CB1 and CB2,CB1 and CB2,57 fold
COc1ccc(-c2csc(NC(=O)CSc3nnc4c(C)cc5ccccc5n34)n2)cc1 [ML185],Potency for GPR55,GPR55,658 nM
same,Selectivity against CB1 and CB2,CB1 and CB2,greater than 48 fold
COc1ccc(S(=O)(=O)N2CCOCC2)cc1NC(=O)c1cc2c(s1)CCCC2 [ML186],Potency for GPR55,GPR55,305 nM
same,Selectivity against CB1 and CB2,CB1 and CB2,greater than 100 fold
Cc1ccc(C2(C(=O)N3CCC(n4nc(-c5ccccc5)oc4=O)CC3)CC2)cc1 [ML191],Agonism or antagonism against CB1 and CB2,CB1 and CB2,no observed agonism or antagonism
Cc1nc(N2CCN(C(=O)c3ccco3)CC2)c2c3c(sc2n1)CCCC3 [ML192],Agonism or antagonism against CB1 and CB2,CB1 and CB2,no observed agonism or antagonism
Cc1cc(C)c2nc(-c3ccccn3)cc(C(=O)Nc3ccc(S(=O)(=O)Nc4onc(C)c4C)cc3)c2c1 [ML193],Agonism or antagonism against CB1 and CB2,CB1 and CB2,no observed agonism or antagonism
"CC(=O)N[C@@H](CS)C(=O)O [NAC, N-acetylcysteine]",HIV replication,HIV [3],inhibit HIV replication; also recorded: blocked stimulation of HIV replication
same,Influenza virus specific T lymphocyte proliferation and IFNγ production,human PBMCs,increase
same,"Pulmonary inflammation, edema, myeloperoxidase, cells and cytokines in BAL fluid",[4],reduced
same,"Diversity index, Dosed","[5]; NAC single 1200 mg dose (2×600 mg effervescent tablets), 24 hours post dose",20.0 and 15.9
same,"Diversity index, Fold change","[5]; NAC single 1200 mg dose, 24 hours vs baseline",1.6 fold and 1.5 fold
same,Time until immune diversity returns to baseline,[5]; after a single dose,24 h
same,Total number of clonotypes,[5],increases
same,"Survival, risk ratio","HIV [6]; 73 subjects with survival data, P=0.0003, median NAC dose 5.3 g/day, median 24 weeks",0.3 (0.1-0.6)
same,Viral load,"HIV [6]; NAC treatment during the trial, P>0.1",did not result in a significant change
same,CD4 T cell count,"HIV [6]; NAC treatment during the trial, P>0.9",did not result in a significant change
same,Whole blood GSH and T cell GSH,HIV [6]; NAC treatment for 8 weeks,replenished
same,Tolerability,[7]; NAC 600 mg twice daily for 6 months,well tolerated
same,Virus-infected subjects who developed a symptomatic form,"[7]; NAC effervescent tablets 600 mg twice daily for 6 months, 79% in the placebo group",25%
same,Production of pro-inflammatory molecules,[8],inhibit
"CCCCCc1cc(O)c2c(c1)OC(C)(C)[C@@H]1CCC(C)=C[C@@H]21 [THC, Δ^9-tetrahydrocannabinol]",Intoxication characteristic of THC,[9],without intoxication
same,Total number of clonotypes,[5],rapidly increases
CC(C)=CCC[C@@H](C)[C@@H]1CC[C@]2(C)C3=C(CC[C@@]12C)[C@@]1(C)CC[C@H](O)C(C)(C)[C@@H]1CC3 [euphol],IC50,[10],315 nM
C=C[C@H](O)C#CC#CC/C=C\CCCCCCC [falcarinol],Ki,CB1 receptor,< 1000 nM
CCOC(=O)C1=C[C@@H](OC(CC)CC)[C@H](NC(C)=O)[C@@H](N)C1 [oseltamivir],Survival rate,[11],60%
NC(=O)c1ncn([C@@H]2O[C@H](CO)[C@@H](O)[C@H]2O)n1 [ribavirin],Survival rate,influenza virus,58%
C=C1CC/C=C(\C)CC[C@@H]2[C@@H]1CC2(C)C [β-caryophyllene],Functional activity at the CB2 receptor,CB2 receptor,full agonist
